Experimental data from patent US20160102073A1, “2-HYDROXYMETHYL-SUBSTITUTED OREXIN RECEPTOR ANTAGONISTS” (MERCK SHARP & DOHME CORP., priority 2013, published 2016).

Key:
[1] = target: T1, human orexin-2 receptor (hOX2R) (Homo sapiens, UniProt O43614); assay: FLIPR Ca2+ Flux Assay, CHO cells expressing hOX2R; assay type: cell-based; details: agonist 70 pM Ala-6,12 orexin-A
T1 construct: expressed in transfected cells; host or cells: Chinese hamster ovary (CHO) cells, grown under G418 selection
T1 sequence (O43614 1-444): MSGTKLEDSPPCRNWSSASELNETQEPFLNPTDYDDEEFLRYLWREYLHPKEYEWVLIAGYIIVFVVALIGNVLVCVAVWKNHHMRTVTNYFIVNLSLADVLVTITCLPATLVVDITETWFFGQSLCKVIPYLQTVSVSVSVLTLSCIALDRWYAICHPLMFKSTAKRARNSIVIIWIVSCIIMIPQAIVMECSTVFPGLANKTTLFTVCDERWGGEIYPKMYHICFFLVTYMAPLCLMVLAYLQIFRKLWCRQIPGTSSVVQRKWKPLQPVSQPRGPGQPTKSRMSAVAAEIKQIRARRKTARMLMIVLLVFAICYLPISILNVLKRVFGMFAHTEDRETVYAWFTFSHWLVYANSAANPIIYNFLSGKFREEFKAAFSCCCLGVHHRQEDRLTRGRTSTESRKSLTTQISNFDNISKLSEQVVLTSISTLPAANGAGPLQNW
Description: The utility of the compounds in accordance with the present invention as orexin receptor OX1R and/or OX2R antagonists may be readily determined without undue experimentation by methodology well known in the art, including the “FLIPR Ca^2+ Flux Assay” (Okumura et al., Biochem. Biophys. Res. Comm. 280:976-981, 2001). In a typical experiment the OX1 and OX2 receptor antagonistic activity of the compounds of the present invention was determined in accordance with the following experimental method. For intracellular calcium measurements, Chinese hamster ovary (CHO) cells expressing the rat orexin-1 receptor or the human orexin-2 receptor, are grown in Iscove's modified DMEM containing 2 mM L-glutamine, […], 1% hypoxanthine-thymidine supplement, 100 U/ml penicillin, 100 μg/ml streptomycin and 10% heat-inactivated fetal calf serum (FCS). The cells are seeded at 20,000 cells/well into Becton-Dickinson black 384-well clear bottom sterile plates coated with poly-D-lysine. All reagents were from GIBCO-Invitrogen Corp. The seeded plates are incubated overnight at 37° C. and 5% CO2. Ala-6,12 human orexin-A as the agonist is prepared as a 1 mM stock solution in 1% bovine serum albumin (BSA) and diluted in assay buffer (HBSS containing 20 mM HEPES, 0.1% BSA and 2.5 mM probenecid, pH7.4) for use in the assay at a final concentration of 70 pM. Test compounds are prepared as 10 mM stock solution in DMSO, then diluted in 384-well plates, first in DMSO, then assay buffer. On the day of the assay, cells are washed 3 times with 100 μl assay buffer and then incubated for 60 min (37° C., 5% CO2) in 60 μl assay buffer containing 1 μM Fluo-4AM ester, 0.02% pluronic acid, and 1% BSA. The dye loading solution is then aspirated and cells are washed 3 times with 100 μl assay buffer. 30 μl of that same buffer is left in each well. Within the Fluorescent Imaging Plate Reader (FLIPR, Molecular Devices), test compounds are added to the plate in a volume of 25 μl, incubated for 5 min and finally 25 μl of agonist is added. Fluorescence is measured for each well at 1 second intervals for 5 minutes and the height of each fluorescence peak is compared to the height of the fluorescence peak induced by 70 pM Ala-6,12 orexin-A with buffer in place of antagonist. For each antagonist, IC50 value (the concentration of compound needed to inhibit 50% of the agonist response) is determined. Alternatively, compound potency can be assessed by a radioligand binding assay (described in Bergman et. al. Bioorg. Med. Chem. Lett. 2008, 18, 1425-1430) in which the inhibition constant (Ki) is determined in membranes prepared from CHO cells expressing either the OX1 or OX2 receptor. The intrinsic orexin receptor antagonist activity of a compound which may be used in the present invention may be determined by these assays.
Chinese hamster ovary (CHO) cells expressing the human orexin-1 receptor (hOX1R) or the human orexin-2 receptor (hOX2R) were grown in Iscove's modified DMEM containing 2 mM L-glutamine, […], 1% hypoxanthine-thymidine supplement, 100 U/ml penicillin, 100 μg/ml streptomycin and 10% heat-inactivated fetal calf serum (FCS). The cells were seeded at 20,000 cells/well into Becton-Dickinson black 384-well clear bottom sterile plates coated with poly-D-lysine. All reagents were from GIBCO-Invitrogen Corp. The seeded plates were incubated overnight at 37° C. and 5% CO2. Ala-6,12 human orexin-A, used as the agonist, was prepared as a 1 mM stock solution in 1% bovine serum albumin (BSA) and diluted in assay buffer (HBSS containing 20 mM HEPES, 0.1% BSA and 2.5 mM probenecid, pH7.4) for use in the assay at a final concentration of 70 pM. Test compounds were prepared as 10 mM stock solution in DMSO, then diluted in 384-well plates, first in DMSO, then assay buffer. […]

[2] = target: T2, human orexin-1 receptor (hOX1R) (Homo sapiens, UniProt O43613); assay: FLIPR Ca2+ Flux Assay, CHO cells expressing hOX1R; assay type: cell-based; details: agonist 70 pM Ala-6,12 orexin-A
T2 construct: expressed in transfected cells; host or cells: Chinese hamster ovary (CHO) cells, grown under G418 selection
T2 sequence (O43613 1-425): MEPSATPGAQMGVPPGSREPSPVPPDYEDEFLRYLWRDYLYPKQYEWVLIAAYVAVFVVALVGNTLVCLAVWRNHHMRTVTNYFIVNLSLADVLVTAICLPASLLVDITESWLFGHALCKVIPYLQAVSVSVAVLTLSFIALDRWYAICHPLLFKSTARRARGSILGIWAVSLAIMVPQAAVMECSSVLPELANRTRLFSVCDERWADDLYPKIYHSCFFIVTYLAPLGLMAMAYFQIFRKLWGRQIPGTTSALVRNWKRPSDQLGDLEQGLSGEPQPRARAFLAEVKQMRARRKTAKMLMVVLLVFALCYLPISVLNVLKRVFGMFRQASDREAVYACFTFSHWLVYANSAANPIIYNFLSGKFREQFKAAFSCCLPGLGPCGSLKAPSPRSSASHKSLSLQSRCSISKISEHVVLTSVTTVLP
Description: Chinese hamster ovary (CHO) cells expressing the human orexin-1 receptor (hOX1R) or the human orexin-2 receptor (hOX2R) were grown in Iscove's modified DMEM containing 2 mM L-glutamine, […], 1% hypoxanthine-thymidine supplement, 100 U/ml penicillin, 100 μg/ml streptomycin and 10% heat-inactivated fetal calf serum (FCS). The cells were seeded at 20,000 cells/well into Becton-Dickinson black 384-well clear bottom sterile plates coated with poly-D-lysine. All reagents were from GIBCO-Invitrogen Corp. The seeded plates were incubated overnight at 37° C. and 5% CO2. Ala-6,12 human orexin-A, used as the agonist, was prepared as a 1 mM stock solution in 1% bovine serum albumin (BSA) and diluted in assay buffer (HBSS containing 20 mM HEPES, 0.1% BSA and 2.5 mM probenecid, pH7.4) for use in the assay at a final concentration of 70 pM. Test compounds were prepared as 10 mM stock solution in DMSO, then diluted in 384-well plates, first in DMSO, then assay buffer.
On the day of the assay, cells were washed 3× with 100 μl assay buffer and then incubated for 60 minutes (37° C., 5% CO2) in 60 μl assay buffer containing 1 μM Fluo-4AM ester, 0.02% pluronic acid, and 1% BSA. The dye loading solution was then aspirated and cells were washed 3× with 100 μl assay buffer. 30 μl of that same buffer was left in each well. Within the Fluorescent Imaging Plate Reader (FLIPR, Molecular Devices), test compounds were added to the plate in a volume of 25 μl, incubated for 5 minutes, and then 25 μl of agonist was added. Fluorescence was measured for each well at 1 second intervals for 5 minutes, and the height of each fluorescence peak was compared to the height of the fluorescence peak induced by 70 pM of Ala-6,12 orexin-A with buffer in place of test compound.

IC50 [1] [nM] | IC50 [2] [nM] | SMILES
30 | 44.5 | C[C@@H]1CC[C@@H](Oc2ncccc2C(C)(C)O)CN1C(=O)c1ccccc1-n1nccn1 [Example 1, 2-(2-{[(3R,6R)-6-Methyl-1-{[2-(2H-1,2,3-triazol-2-yl)phenyl]carbonyl}piperidin-3-yl]oxy}pyridin-3-yl)propan-2-ol]
11 | 30 | C[C@@H]1CC[C@@H](Oc2ncccc2C(C)(C)O)CN1C(=O)c1cc(CF)ccc1-n1nccn1 [Example 2, 2-(2-{[(3R,6R)-1-{[5-(Fluoromethyl)-2-(2H-1,2,3-triazol-2-yl)phenyl]carbonyl}-6-methylpiperidin-3-yl]oxy}pyridin-3-yl)propan-2-ol]
35 | 189 | C[C@@H]1CC[C@@H](Oc2ncccc2C(C)(C)O)CN1C(=O)c1cccc(F)c1-n1nccn1 [Example 3, 2-(2-{[(3R,6R)-1-{[3-fluoro-2-(2H-1,2,3-triazol-2-yl)phenyl]carbonyl}-6-methylpiperidin-3-yl]oxy}pyridin-3-yl)propan-2-ol]
68 | 425 | C[C@@H]1CC[C@@H](Oc2ncccc2C(C)(C)O)CN1C(=O)c1ccc(F)cc1-n1nccn1 [Example 4, 2-(2-{[(3R,6R)-1-{[4-fluoro-2-(2H-1,2,3-triazol-2-yl)phenyl]carbonyl}-6-methylpiperidin-3-yl]oxy}pyridin-3-yl)propan-2-ol]
34 | 121 | C[C@@H]1CC[C@@H](Oc2ncccc2C(C)(C)O)CN1C(=O)c1cc(F)ccc1-n1nccn1 [Example 5, 2-(2-{[(3R,6R)-1-{[5-fluoro-2-(2H-1,2,3-triazol-2-yl)phenyl]carbonyl}-6-methylpiperidin-3-yl]oxy}pyridin-3-yl)propan-2-ol]
66 | 141 | C[C@@H]1CC[C@@H](Oc2ncccc2C(C)(C)O)CN1C(=O)c1cc(Cl)ccc1-n1nccn1 [Example 6, 2-(2-{[(3R,6R)-1-{[5-chloro-2-(2H-1,2,3-triazol-2-yl)phenyl]carbonyl}-6-methylpiperidin-3-yl]oxy}pyridin-3-yl)propan-2-ol]
88 | 418 | C[C@@H]1CC[C@@H](Oc2ncccc2C(C)(C)O)CN1C(=O)c1cc(C#N)ccc1-n1nccn1 [Example 7, 3-{[(2R,5R)-5-{[3-(1-hydroxy-1-methylethyl)pyridin-2-yl]oxy}-2-methylpiperidin-1-yl]carbonyl}-4-(2H-1,2,3-triazol-2-yl)benzonitrile]

The remaining lines, values behind:

SMILES | IC50 [1] [nM] | IC50 [2] [nM]
COc1ccnc(O[C@@H]2CC[C@@H](C)N(C(=O)c3ccccc3-n3nccn3)C2)c1C(C)(C)O (single isomer, unassigned) [Example 28] | 80 | 93
C[C@@H]1CC[C@@H](Oc2ncccc2C(C)(C)O)CN1C(=O)c1ccccc1-c1ccccc1 [Example 8, 2-(2-{[(3R,6R)-1-(biphenyl-2-ylcarbonyl)-6-methylpiperidin-3-yl]oxy}pyridin-3-yl)propan-2-ol] | 70 | 124
C[C@@H]1CC[C@@H](Oc2ncccc2C(C)(C)O)CN1C(=O)c1ccccc1C1CCC1 [Example 9, 2-[2-({(3R,6R)-1-[(2-cyclobutylphenyl)carbonyl]-6-methylpiperidin-3-yl}oxy)pyridin-3-yl]propan-2-ol] | 54 | 89
COc1ccc(C(=O)N2C[C@H](Oc3ncccc3C(C)(C)O)CC[C@H]2C)c(-c2ccccc2)n1 [Example 10, 2-[2-({(3R,6R)-1-[(6-methoxy-2-phenylpyridin-3-yl)carbonyl]-6-methylpiperidin-3-yl}oxy)pyridin-3-yl]propan-2-ol] | 157 | 435
C[C@@H]1CC[C@@H](Oc2ncccc2C(C)(C)O)CN1C(=O)c1sccc1-n1nccn1 [Example 11, 2-(2-{[(3R,6R)-6-methyl-1-{[3-(2H-1,2,3-triazol-2-yl)thiophen-2-yl]carbonyl}piperidin-3-yl]oxy}pyridin-3-yl)propan-2-ol] | 41 | 148
C[C@@H]1CC[C@@H](Oc2ncccc2C(C)(C)O)CN1C(=O)c1ccccc1N1CCCC1 [Example 12, 2-[2-({(3R,6R)-6-methyl-1-[(2-pyrrolidin-1-ylphenyl)carbonyl]piperidin-3-yl}oxy)pyridin-3-yl]propan-2-ol] | 104 | 265
C[C@@H]1CC[C@@H](Oc2ncccc2C(C)(C)O)CN1C(=O)c1ccccc1C1CC1 [Example 13, 2-[2-({(3R,6R)-1-[(2-cyclopropylphenyl)carbonyl]-6-methylpiperidin-3-yl}oxy)pyridin-3-yl]propan-2-ol] | 34 | 94
C[C@@H]1CC[C@@H](Oc2ncccc2C(C)(C)O)CN1C(=O)c1ccc(F)cc1C1CC1 [Example 14, 2-[2-({(3R,6R)-1-[(2-cyclopropyl-4-fluorophenyl)carbonyl]-6-methylpiperidin-3-yl}oxy)pyridin-3-yl]propan-2-ol] | 49 | 475
